# Experimental data reported in patent US7674801B2 (AstraZeneca AB, priority 2006, dated 2010).
# pIC50: −log10 of the molar value.
# Target: S. aureus (SAU) GyrB ATPase (Staphylococcus aureus, UniProt P0A0K8)
# Test: S. aureus GyrB ATPase inhibition, ammonium molybdate/malachite green phosphate detection assay
# Format: biochemical
# Settings: 10 compound concentrations; 500 μM ATP
# Description: Compounds were tested for inhibition of GyrB ATPase activity using an ammonium molybdate/malachite green-based phosphate detection assay (Lanzetta, P. A., L. J. Alvarez, P. S. Reinach, and O. A. Candia, 1979, 100: 95-97). Assays were performed in multiwell plates in 100 μl reactions containing: 50 mM Hepes buffer pH 7.5, 75 mM ammonium acetate, 8.0 mM magnesium chloride, 1.0 mM ethylenediaminetetraacetic acid, 5% glycerol, 2 mM 1,4-Dithio-DL-threitol, 400 nM bovine serum albumin, 5 μg/ml sheared salmon sperm DNA, 1.25 nM E. coli GyrA, 1.25 nM S. aureus GyrB, 500 μM ATP, and compound in dimethylsulfoxide. Reactions were quenched with 150 μl of ammonium molybdate/malachite green detection reagent containing 1.2 mM malachite green hydrochloride, 8.5 mM ammonium molybdate tetrahydrate, and 1 M hydrochloric acid. Plates were read in an absorbance plate reader at 650 nm and percent inhibition values were calculated using dimethylsulfoxide (2%)-containing reactions as 0% inhibition and novobiocin-containing (2 μM) reactions as 100% inhibition controls. Compound potency was based on IC50 measurements determined from reactions performed in the presence of 10 different compound concentrations.
# S. aureus (SAU) GyrB ATPase, sequence (P0A0K8 whole entry): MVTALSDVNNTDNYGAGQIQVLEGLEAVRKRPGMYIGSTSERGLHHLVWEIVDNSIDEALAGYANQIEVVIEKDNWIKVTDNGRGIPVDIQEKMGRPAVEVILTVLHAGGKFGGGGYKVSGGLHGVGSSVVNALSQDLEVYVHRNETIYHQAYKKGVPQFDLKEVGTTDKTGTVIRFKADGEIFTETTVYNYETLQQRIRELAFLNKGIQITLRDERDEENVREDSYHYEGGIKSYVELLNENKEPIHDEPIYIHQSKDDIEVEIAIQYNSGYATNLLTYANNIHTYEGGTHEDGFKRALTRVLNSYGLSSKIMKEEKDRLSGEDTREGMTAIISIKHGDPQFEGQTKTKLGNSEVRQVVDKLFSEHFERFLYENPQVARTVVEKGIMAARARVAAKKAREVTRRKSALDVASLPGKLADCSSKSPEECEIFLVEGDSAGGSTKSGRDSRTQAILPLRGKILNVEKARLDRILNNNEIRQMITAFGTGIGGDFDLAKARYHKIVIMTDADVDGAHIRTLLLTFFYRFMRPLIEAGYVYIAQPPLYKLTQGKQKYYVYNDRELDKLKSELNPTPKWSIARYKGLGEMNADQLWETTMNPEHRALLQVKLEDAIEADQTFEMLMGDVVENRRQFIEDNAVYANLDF
# S. aureus (SAU) GyrB ATPase, sequence (P0AES4 whole entry, further chain): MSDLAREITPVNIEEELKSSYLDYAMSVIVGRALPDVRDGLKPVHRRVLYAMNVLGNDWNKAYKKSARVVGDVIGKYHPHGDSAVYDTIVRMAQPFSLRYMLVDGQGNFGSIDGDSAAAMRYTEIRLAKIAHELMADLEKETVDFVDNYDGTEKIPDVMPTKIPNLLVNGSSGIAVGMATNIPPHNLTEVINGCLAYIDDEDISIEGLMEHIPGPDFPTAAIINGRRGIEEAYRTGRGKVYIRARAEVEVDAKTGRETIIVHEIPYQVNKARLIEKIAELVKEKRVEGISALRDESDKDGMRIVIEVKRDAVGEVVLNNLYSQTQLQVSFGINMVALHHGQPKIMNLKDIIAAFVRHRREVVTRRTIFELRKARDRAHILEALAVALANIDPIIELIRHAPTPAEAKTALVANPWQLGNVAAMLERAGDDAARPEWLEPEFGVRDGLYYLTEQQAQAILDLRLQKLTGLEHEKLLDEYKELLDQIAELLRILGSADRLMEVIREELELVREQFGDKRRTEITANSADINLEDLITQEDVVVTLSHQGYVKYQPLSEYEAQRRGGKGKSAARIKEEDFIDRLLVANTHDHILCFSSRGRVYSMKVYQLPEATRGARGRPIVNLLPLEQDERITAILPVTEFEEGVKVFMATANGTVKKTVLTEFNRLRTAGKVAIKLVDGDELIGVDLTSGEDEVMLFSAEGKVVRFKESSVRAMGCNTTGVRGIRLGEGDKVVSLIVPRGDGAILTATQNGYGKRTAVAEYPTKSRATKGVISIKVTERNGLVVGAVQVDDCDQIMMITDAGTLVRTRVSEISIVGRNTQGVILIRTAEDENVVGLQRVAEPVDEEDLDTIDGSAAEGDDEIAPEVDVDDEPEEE
row,Compound,pIC50
1,"CCCCNC(=O)c1nc(-c2ccc(NC(=O)NCC)nc2)sc1C(N)=O [Example 39, N^4-Butyl-2-(6-{[(ethylamino)carbonyl]amino}pyridin-3-yl)-1,3-thiazole-4,5-dicarboxamide]",7.85

# Same assay, conditions: compound concentration 5 μM (values marked *)
row,Compound,inhibition at 5 µM [%]
1,"CCNC(=O)Nc1ccc(-c2nc(C(=O)NC3CC3)c(C(=O)NOC)s2)cn1 [Example 35, N^4-Cyclopropyl-2-(6-{[(ethylamino)carbonyl]amino}pyridin-3-yl)-N^5-methoxy-1,3-thiazole-4,5-dicarboxamide]",96.7

# Same assay, conditions: read-out: S. aureus (SAU) GyrB ATPase % Inhibition, compound concentration 12.5 μM
row,Compound,inhibition at 12.5 µM [%]
1,"CCCNC(=O)c1nc(-c2ccc(NC(=O)NCC)nc2)sc1C(=O)N(C)C [Example 64, 2-[6-(3-ethyl-ureido)-pyridin-3-yl]-thiazole-4,5-dicarboxylic acid 5-dimethylamide 4-propylamide]",92.6
2,"CCNC(=O)Nc1ccc(-c2nc(C(C)=O)c(C(=O)N(C)C)s2)cn1 [Example 153, 4-acetyl-2-(6-{[(ethylamino)carbonyl]amino}pyridin-3-yl)-N,N-dimethyl-1,3-thiazole-5-carboxamide]",71.4
3,"CCNC(=O)Nc1ccc(-c2nc(C(C)=O)c(C(N)=O)s2)cn1 [Example 154, 4-acetyl-2-(6-{[(ethylamino)carbonyl]amino}pyridin-3-yl)-1,3-thiazole-5-carboxamide]",99.8
4,"CCNC(=O)Nc1ccc(-c2cccc(CC(=O)O)c2)cn1 [Example 146, [3-(6-{[(ethylamino)carbonyl]amino}pyridin-3-yl)phenyl]acetic acid]",64.3
5,"CCNC(=O)Nc1cc(-c2cncc(F)c2)c(-c2cncc(C(=O)NC)c2)cn1 [Example 70, 6′-{[(ethylamino)carbonyl]amino}-5″-fluoro-N-methyl-3,3′:4′,3″-terpyridine-5-carboxamide]",88.2
6,"CNC(=O)c1cncc(-c2cnc(NC(=O)NC(C)C)cc2-c2nc(C(F)(F)F)cs2)c1 [Example 129, 6′-{[(Isopropylamino)carbonyl]amino}-N-methyl-4′-[4-(trifluoromethyl)-1,3-thiazol-2-yl]-3,3′-bipyridine-5-carboxamide]",100
7,"CCNC(=O)Nc1ccc(-c2nc(C(=O)N(C)C)c(C(=O)OCC)s2)cn1 [Example 140, ethyl 4-[(dimethylamino)carbonyl]-2-(6-{[(ethylamino)carbonyl]amino}pyridin-3-yl)-1,3-thiazole-5-carboxylate]",76.6
8,"CCNC(=O)Nc1cc(-c2nc(C(F)(F)F)cs2)c(-c2cncc(C(=O)O)c2)cn1 [Example 101, 6′-{[(Ethylamino)carbonyl]amino}-4′-[4-(trifluoromethyl)-1,3-thiazol-2-yl]-3,3′-bipyridine-5-carboxylic acid]",98.3
9,"CCNC(=O)Nc1cc(-c2nc(C(F)(F)F)cs2)c(-c2cncc(C(N)=O)c2)cn1 [Example 121, 6′-{[(Ethylamino)carbonyl]amino}-4′-[4-(trifluoromethyl)-1,3-thiazol-2-yl]-3,3′-bipyridine-5-carboxamide]",81.8
10,"CCNC(=O)Nc1ccc(-c2ccc3nc(C(=O)O)cn3c2)cn1 [Example 28, 6-(6-{[(Ethylamino)carbonyl]amino}pyridin-3-yl)imidazo[1,2-a]pyridine-2-carboxylic acid]",96.8
11,"CCNC(=O)Nc1ccc(-c2nc(C(=O)N(C)C)c(C(=O)NCC)s2)cn1 [Example 54, N^5-Ethyl-2-(6-{[(ethylamino)carbonyl]amino}pyridin-3-yl)-N^4,N^4-dimethyl-1,3-thiazole-4,5-dicarboxamide]",89.8
12,"CCNC(=O)Nc1ncc(-c2ncc(C(=O)O)s2)cn1 [Example 30, 2-(2-{[(Ethylamino)carbonyl]amino}pyrimidin-5-yl)-1,3-thiazole-5-carboxylic acid]",62.9
13,"CCNC(=O)Nc1ccc(-c2ncc(C(=O)OC)s2)cn1 [Example 1, Methyl 2-(6-{[(ethylamino)carbonyl]amino}pyridin-3-yl)-1,3-thiazole-5-carboxylate]",3.02
14,"CCNC(=O)Nc1ccc(-c2nc(C(=O)N(C)C)c(C(=O)O)s2)cn1 [Example 149, 4-[(dimethylamino)carbonyl]-2-(6-{[(ethylamino)carbonyl]amino}pyridin-3-yl)-1,3-thiazole-5-carboxylic acid]",97.5
15,CCNC(=O)Nc1ccc(-c2nc(C(=O)NC(C)C)c(C(=O)N(C)C)s2)cn1 [Example 67],92.5
16,"CCNC(=O)Nc1ccc(-c2nc(C(=O)NC(C)(C)C)c(C(=O)O)s2)cn1 [Example 94, 4-[(tert-Butylamino)carbonyl]-2-(6-{[(ethylamino)carbonyl]amino}pyridin-3-yl)-1,3-thiazole-5-carboxylic acid]",98.9
17,"CCNC(=O)Nc1ccc(-c2cncc(C(=O)OCC)c2)cn1 [Example 3, Ethyl 6′-{[(ethylamino)carbonyl]amino}-3,3′-bipyridine-5-carboxylate]",55

row,Compound,inhibition at 12.5 µM [%]
1,"CCNC(=O)Nc1ccc(-c2nc(C(=O)NC(C)(C)C)c(C(=O)OCC)s2)cn1 [Example 76, Ethyl 4-[(tert-butylamino)carbonyl]-2-(6-{[(ethylamino)carbonyl]amino}pyridin-3-yl)-1,3-thiazole-5-carboxylate]",88.2
2,"CCNC(=O)Nc1cc(-c2nc(C(F)(F)F)cs2)c(-c2cncc(C(=O)OCC)c2)cn1 [Example 83, Ethyl 6′-{[(ethylamino)carbonyl]amino}-4′-[4-(trifluoromethyl)-1,3-thiazol-2-yl]-3,3′-bipyridine-5-carboxylate]",86.9
3,"CCNC(=O)Nc1cc(-c2ccccc2)c(-c2ncc(C(=O)O)s2)cn1 [Example 97, 2-(6-{[(Ethylamino)carbonyl]amino}-4-phenylpyridin-3-yl)-1,3-thiazole-5-carboxylic acid]",101
4,"CCC(C)NC(=O)Nc1cc(-c2nc(C(F)(F)F)cs2)c(-c2cncc(C(=O)O)c2)cn1 (stereo not drawn) [Example 106, 6′-{[(Sec-butylamino)carbonyl]amino}-4′-[4-(trifluoromethyl)-1,3-thiazol-2-yl]-3,3′-bipyridine-5-carboxylic acid]",93.1
5,"CCNC(=O)Nc1cc(-c2nc(C(F)(F)F)cs2)c(-c2ncc(C(=O)NC)s2)cn1 [Example 127, 2-{6-{[(Ethylamino)carbonyl]amino}-4-[4-(trifluoromethyl)-1,3-thiazol-2-yl]pyridin-3-yl}-N-methyl-1,3-thiazole-5-carboxamide]",97
6,"CCNC(=O)Nc1cc(-c2ccccc2)c(-c2cncc(C(=O)O)c2)cn1 [Example 95, 6′-{[(Ethylamino)carbonyl]amino}-4′-phenyl-3,3′-bipyridine-5-carboxylic acid]",100
7,"CCNC(=O)Nc1cc(-c2cccnc2)c(-c2cncc(C(=O)O)c2)cn1 [Example 103, 6′-{[(Ethylamino)carbonyl]amino}-3,3′:4′,3″-terpyridine-5-carboxylic acid]",96
8,"CC(C)NC(=O)Nc1cc(-c2nc(C(F)(F)F)cs2)c(-c2cncc(C(=O)O)c2)cn1 [Example 105, 6′-{[(Isopropylamino)arbonyl]amino}-4′-[4-(trifluoromethyl)-1,3-thiazol-2-yl]-3,3′-bipyridine-5-carboxylic acid]",94.8
9,"CCNC(=O)Nc1ccc(-c2nc(C(=O)NC)c(C(N)=O)s2)cn1 [Example 115, 2-(6-{[(Ethylamino)carbonyl]amino}pyridin-3-yl)-N^4-methyl-1,3-thiazole-4,5-dicarboxamide]",99.2
10,"CCNC(=O)Nc1cc(-c2ccccc2)c(-c2cncc(C(=O)OCC)c2)cn1 [Example 77, Ethyl 6′-{[(ethylamino)carbonyl]amino}-4′-phenyl-3,3′-bipyridine-5-carboxylate]",101
11,"CCNC(=O)Nc1ccc(-c2nc(C(=O)NC(C)(C)C)c(C(=O)N(C)C)s2)cn1 [Example 110, N^4-(tert-Butyl)-2-(6-{[(ethylamino)carbonyl]amino}pyridin-3-yl)-N^5,N^5-dimethyl-1,3-thiazole-4,5-dicarboxamide]",101
12,"CCNC(=O)Nc1ccc(-c2nc(C(=O)NC3CC3)c(C(N)=O)s2)cn1 [Example 38, N^4-Cyclopropyl-2-(6-{[(ethylamino)carbonyl]amino}pyridin-3-yl)-1,3-thiazole-4,5-dicarboxamide]",91.8
13,"CCNC(=O)Nc1cc(-c2nc(CC)cs2)c(-c2cncc(C(N)=O)c2)cn1 [Example 119, 6′-{[(Ethylamino)carbonyl]amino}-4′-(4-ethyl-1,3-thiazol-2-yl)-3,3′-bipyridine-5-carboxamide]",103
14,"CCCCNC(=O)c1nc(-c2ccc(NC(=O)NCC)nc2)sc1C(N)=O [Example 39, N^4-Butyl-2-(6-{[(ethylamino)carbonyl]amino}pyridin-3-yl)-1,3-thiazole-4,5-dicarboxamide]",99
15,"CCNC(=O)Nc1cc(-c2ccccc2)c(-c2cncc(C(N)=O)c2)cn1 [Example 114, 6′-{[(Ethylamino)carbonyl]amino}-4′-phenyl-3,3′-bipyridine-5-carboxamide]",105
16,"CCCNC(=O)c1sc(-c2ccc(NC(=O)NCC)nc2)nc1C(=O)N(C)C [Example 55, 2-[6-(3-Ethyl-ureido)-pyridin-3-yl]-thiazole-4,5-dicarboxylic acid 4-dimethylamide 5-propylamide]",86.4
17,"CCNC(=O)Nc1cccc(-c2cccc(C(=O)N(C)C)c2)n1 [Example 156, 3-(6-{[(ethylamino)carbonyl]amino}pyridin-2-yl)-N,N-dimethylbenzamide]",43
